Laboratory results from ChEMBL document CHEMBL5226381, “Iterative Methylation Leads to 3-Methylchuangxinmycin Production in Actinoplanes tsinanensis CPCC 200056” (2023).
Converted amounts (≈) assume the structure as drawn.

Legend:
Assay type in all cases: functional
Conditions in all cases: time 7-10 day
[1] = tested on: Mycobacterium tuberculosis; assay: Antitubercular activity against INH/RIF-resistant Mycobacterium tuberculosis clinical isolate M34 assessed as inhibition of bacterial growth incubated for 7 to 10 days by Alamar Blue staining based analysis
[2] = tested on: Mycobacterium tuberculosis; assay: Antitubercular activity against INH/RIF-resistant Mycobacterium tuberculosis clinical isolate M6 assessed as inhibition of bacterial growth incubated for 7 to 10 days by Alamar Blue staining based analysis
[3] = tested on: Mycobacterium tuberculosis; assay: Antitubercular activity against INH/RIF-resistant Mycobacterium tuberculosis clinical isolate M7 assessed as inhibition of bacterial growth incubated for 7 to 10 days by Alamar Blue staining based analysis
[4] = tested on: Mycobacterium tuberculosis; assay: Antitubercular activity against INH/RIF-resistant Mycobacterium tuberculosis clinical isolate M15 assessed as inhibition of bacterial growth incubated for 7 to 10 days by Alamar Blue staining based analysis

| Structure (SMILES) | MIC [1] [µg/mL] | MIC [2] [µg/mL] | MIC [3] [µg/mL] | MIC [4] [µg/mL] |
| --- | --- | --- | --- | --- |
| O=C(O)[C@H]1Cc2c[nH]c3cccc(c23)S1 | 0.78 (≈ 3.56 µM) | 0.78 (≈ 3.56 µM) | 0.78 (≈ 3.56 µM) | 0.78 (≈ 3.56 µM) |
| CC1(C)c2c[nH]c3cccc(c23)S[C@H]1C(=O)O | 25 (≈ 101 µM) | 12.5 (≈ 50.5 µM) | 25 (≈ 101 µM) | 12.5 (≈ 50.5 µM) |
| C[C@H]1c2c[nH]c3cccc(c23)S[C@H]1C(=O)O [CHUANGXINMYCIN] | 3.12 (≈ 13.4 µM) | 0.78 (≈ 3.34 µM) | 0.78 (≈ 3.34 µM) | 1.56 (≈ 6.69 µM) |
| NNC(=O)c1ccncc1 [ISONIAZID] | 8 (≈ 58.3 µM) | 8 (≈ 58.3 µM) | 8 (≈ 58.3 µM) | 4 (≈ 29.2 µM) |
| CO[C@H]1/C=C/O[C@@]2(C)Oc3c(C)c(O)c4c(O)c(c(/C=N/N5CCN(C)CC5)c(O)c4c3C2=O)NC(=O)/C(C)=C\C=C\[C@H](C)[C@H](O)[C@@H](C)[C@@H](O)[C@@H](C)[C@H](OC(C)=O)[C@@H]1C [RIFAMPIN] | 16 (≈ 19.4 µM) | 16 (≈ 19.4 µM) | 8 (≈ 9.72 µM) | > 64 |
